Assay results as given in ChEMBL document CHEMBL3044740, “Syntheses and evaluation of 2,5-disubstituted 4-thiazolidinone analogues as antimicrobial agents” (2012).
The source made the active and inactive calls. The rule behind the calls is not given here.

Tests used:
Format in all cases: functional
[1] = system: Pseudomonas aeruginosa; assay: Antibacterial activity against Pseudomonas aeruginosa MTCC 2453 at 100 ug/ml by cup-plate method; conditions: read-out: DIZ
[2] = system: Pseudomonas aeruginosa; assay: Antibacterial activity against Pseudomonas aeruginosa MTCC 2453 at 50 ug/ml by cup-plate method; conditions: read-out: DIZ
[3] = system: Pseudomonas aeruginosa; assay: Antibacterial activity against Pseudomonas aeruginosa MTCC 2453 at 200 ug/ml by cup-plate method; conditions: read-out: DIZ
[4] = system: Staphylococcus aureus; assay: Antibacterial activity against Staphylococcus aureus MTCC 96 at 200 ug/ml by cup-plate method; conditions: read-out: DIZ
[5] = system: Bacillus subtilis; assay: Antibacterial activity against Bacillus subtilis MTCC 121 at 300 ug/ml by cup plate method; conditions: read-out: DIZ
[6] = system: Escherichia coli; assay: Antibacterial activity against Escherichia coli MTCC 739 at 300 ug/ml by cup-plate method; conditions: read-out: DIZ
[7] = system: Staphylococcus aureus; assay: Antibacterial activity against Staphylococcus aureus MTCC 96 at 50 ug/ml by cup-plate method; conditions: read-out: DIZ
[8] = system: Escherichia coli; assay: Antibacterial activity against Escherichia coli MTCC 739 at 200 ug/ml by cup-plate method; conditions: read-out: DIZ
[9] = system: Pseudomonas aeruginosa; assay: Antibacterial activity against Pseudomonas aeruginosa MTCC 2453 at 300 ug/ml by cup-plate method; conditions: read-out: DIZ
[10] = system: Staphylococcus aureus; assay: Antibacterial activity against Staphylococcus aureus MTCC 96 at 300 ug/ml by cup-plate method; conditions: read-out: DIZ
[11] = system: Escherichia coli; assay: Antibacterial activity against Escherichia coli MTCC 739 at 50 ug/ml by cup-plate method; conditions: read-out: DIZ
[12] = system: Bacillus subtilis; assay: Antibacterial activity against Bacillus subtilis MTCC 121 at 50 ug/ml by cup plate method; conditions: read-out: DIZ
[13] = system: Candida albicans; assay: Antifungal activity against Candida albicans MTCC 227 at 300 ug/ml by cup-plate method
[14] = system: Candida albicans; assay: Antifungal activity against Candida albicans MTCC 227 at 50 ug/ml by cup-plate method
[15] = system: Bacillus subtilis; assay: Antibacterial activity against Bacillus subtilis MTCC 121 at 200 ug/ml by cup plate method; conditions: read-out: DIZ
[16] = system: Staphylococcus aureus; assay: Antibacterial activity against Staphylococcus aureus MTCC 96 at 100 ug/ml by cup-plate method; conditions: read-out: DIZ
[17] = system: Bacillus subtilis; assay: Antibacterial activity against Bacillus subtilis MTCC 121 at 100 ug/ml by cup plate method; conditions: read-out: DIZ
[18] = system: Escherichia coli; assay: Antibacterial activity against Escherichia coli MTCC 739 at 100 ug/ml by cup-plate method; conditions: read-out: DIZ
[19] = system: Candida albicans; assay: Antifungal activity against Candida albicans MTCC 227 at 200 ug/ml by cup-plate method
[20] = system: Candida albicans; assay: Antifungal activity against Candida albicans MTCC 227 at 100 ug/ml by cup-plate method

Row | Compound | zone of inhibition at 100 µg/mL [1] | zone of inhibition at 50 µg/mL [2] | zone of inhibition at 200 µg/mL [3] | zone of inhibition at 200 µg/mL [4] | zone of inhibition at 300 µg/mL [5] | zone of inhibition at 300 µg/mL [6] | zone of inhibition at 50 µg/mL [7] | zone of inhibition at 200 µg/mL [8] | zone of inhibition at 300 µg/mL [9] | zone of inhibition at 300 µg/mL [10] | zone of inhibition at 50 µg/mL [11] | zone of inhibition at 50 µg/mL [12] | diameter of the inhibition zone (DIZ) [13] | diameter of the inhibition zone (DIZ) [14] | zone of inhibition at 200 µg/mL [15] | zone of inhibition at 100 µg/mL [16] | zone of inhibition at 100 µg/mL [17] | zone of inhibition at 100 µg/mL [18] | diameter of the inhibition zone (DIZ) [19] | diameter of the inhibition zone (DIZ) [20]
1 | O=C1N/C(=N\c2ccc([N+](=O)[O-])cc2)S/C1=C\c1ccc(Cl)cc1 | 12 mm | 11 mm | 13 mm | 15 mm | 18 mm | 18 mm | 13 mm | 16 mm | 14 mm | 17 mm | 15 mm | 15 mm | inactive | inactive | 17 mm | 14 mm | 16 mm | 16 mm | inactive | inactive
2 | O=C1N/C(=N\c2ccc([N+](=O)[O-])cc2)S/C1=C\c1ccc(O)cc1 | 11 mm | 10 mm | 11 mm | 13 mm | 15 mm | 15 mm | 11 mm | 13 mm | 12 mm | 15 mm | 11 mm | 11 mm | inactive | inactive | 14 mm | 12 mm | 12 mm | 12 mm | inactive | inactive
3 | O=C1N/C(=N\c2ccc([N+](=O)[O-])cc2)S/C1=C\c1ccccc1Cl | 14 mm | 13 mm | 16 mm | 17 mm | 17 mm | 16 mm | 15 mm | 15 mm | 17 mm | 19 mm | 13 mm | 13 mm | inactive | inactive | 15 mm | 16 mm | 14 mm | 14 mm | inactive | inactive
4 | COc1cc(/C=C2\S/C(=N/c3ccc([N+](=O)[O-])cc3)NC2=O)ccc1O | 15 mm | 14 mm | 15 mm | 16 mm | 15 mm | 13 mm | 14 mm | 12 mm | 17 mm | 17 mm | 11 mm | 11 mm | inactive | inactive | 14 mm | 15 mm | 12 mm | 12 mm | inactive | inactive
